The numbers were not newly measured in patent US20240368063A1, “PREPARATION METHOD, IN[…], AND SYNTHESIS METHOD FOR A CLASS OF ANTHRACENE-DERIVED TOXINS IN ORGANIC CHEMISTRY” (WUYAN PHARMACEUTICAL TECHNOLOGY (SHANGHAI) CO., LTD, priority 2022, published 2024), which cites them from elsewhere.

Molecules are shown by their SMILES.

One data set deals with human tumor cell lines. The conditions noted are these: various tumor cell lines, including cells resistant to anthracyclines.
Another data set deals with topoisomerase II. The note with it: at a concentration of 100 μM.

As to `COc1cccc2c1C(=O)c1c(O)c3c(c(O)c1C2=O)C[C@@](O)(C(=O)CO)C[C@@H]3O[C@H]1C[C@H]2[C@H](O[C@@H]3[C@@H](OC)OCCN32)[C@H](C)O1` [PNU-159682], in the data set on human tumor cell lines, the “cytotoxicity compared to anthracyclines” value is on record as “three orders of magnitude higher cytotoxicity”. Moreover, the “inhibition of the activity of topoisomerase II” value in the data set with topoisomerase II is listed as “weakly inhibits”.
